Reference: US20020051978A1, “Methods and compositions for the identification, assessment, prevention and therapy of human cancers” (priority 2000, published 2002)
Several values for one entry are separate records, joined by “and”; a condition that tells them apart may be missing. Identical values can stand only once. Like-named read-outs stand apart in the source and are kept apart here.

Assays:
[1] = system: 60 cancer cell lines (NCI 60 cancer cell line series); assay: NCI-DTP in vitro cancer screen, sulforhodamine B (SRB) growth inhibition, 48 hour exposure; assay type: cell-based, human
In short: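 Values come from the NCI-DTP screen database: -log GI50, the concentration giving 50% growth inhibition, derived from SRB cell-mass dose-response curves. Each line seeded at its own density, treated day 1 at five ten-fold-spaced doses in duplicate wells, stained after 48 h.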

[2] = system: 60 cancer cell lines (NCI 60 cancer cell line series); details: cited from earlier work

SMILES: COc1cccc2c1C(=O)c1c(O)c3c(c(O)c1C2=O)C[C@@](O)(C(C)=O)C[C@@H]3O[C@H]1C[C@H](N)[C@H](O)[C@H](C)O1 [Daunorubicin]
- classification of cell line as Low(1), Medium(2) or High(3) sensitivity to compound ([1]; Breast BT-549 (CL5013)): 1
- classification of cell line as Low(1), Medium(2) or High(3) sensitivity to compound ([1]; Breast MCF7(I) (CL5001)): 3
- classification of cell line as Low(1), Medium(2) or High(3) sensitivity to compound ([1]; Breast MCF7/ADRr (CL5002)): 1
- classification of cell line as Low(1), Medium(2) or High(3) sensitivity to compound ([1]; Breast MDA-MB-231 CL5005): 1
- classification of cell line as Low(1), Medium(2) or High(3) sensitivity to compound ([1]; Breast MDA-MB-435 (CL5011)): 1
- classification of cell line as Low(1), Medium(2) or High(3) sensitivity to compound ([1]; Breast MDA-N CL5012): 1
- classification of cell line as Low(1), Medium(2) or High(3) sensitivity to compound ([1]; Breast T-47D (CL5014)): 2
- classification of cell line as Low(1), Medium(2) or High(3) sensitivity to compound ([1]; CNS SF-268 CL12014): 2
- classification of cell line as Low(1), Medium(2) or High(3) sensitivity to compound ([1]; CNS SF-295 CL12015): 2
- classification of cell line as Low(1), Medium(2) or High(3) sensitivity to compound ([1]; CNS SNB-19 (CL12002)): 2
- classification of cell line as Low(1), Medium(2) or High(3) sensitivity to compound ([1]; CNS SNB-75(I) CL12005): 2
- classification of cell line as Low(1), Medium(2) or High(3) sensitivity to compound ([1]; CNS U251(I) CL12009): 2
- classification of cell line as Low(1), Medium(2) or High(3) sensitivity to compound ([1]; Colon COLO-250 CL4010): 1
- classification of cell line as Low(1), Medium(2) or High(3) sensitivity to compound ([1]; Colon HCC-2998 (CL4002)): 1
- classification of cell line as Low(1), Medium(2) or High(3) sensitivity to compound ([1]; Colon HCT-15 CL4015): 1
- classification of cell line as Low(1), Medium(2) or High(3) sensitivity to compound ([1]; Colon HCT-116 (CL4003)): 2
- classification of cell line as Low(1), Medium(2) or High(3) sensitivity to compound ([1]; Colon HT29(I) CL4001): 2
- classification of cell line as Low(1), Medium(2) or High(3) sensitivity to compound ([1]; Colon SW-620 (CL4009)): 2
- classification of cell line as Low(1), Medium(2) or High(3) sensitivity to compound ([1]; Leukemia CCRF-CEM(I) (CL7003)): 3
- classification of cell line as Low(1), Medium(2) or High(3) sensitivity to compound ([1]; Leukemia HL-60(I) (CL7008)): 3
- classification of cell line as Low(1), Medium(2) or High(3) sensitivity to compound ([1]; Leukemia MOLT-4 (CL7006)): 3
- classification of cell line as Low(1), Medium(2) or High(3) sensitivity to compound ([1]; Leukemia SR CL7019): 3
- classification of cell line as Low(1), Medium(2) or High(3) sensitivity to compound ([1]; Melanoma M14 (CL10014)): 1
- classification of cell line as Low(1), Medium(2) or High(3) sensitivity to compound ([1]; Melanoma MALME-3M CL10002): 2
- classification of cell line as Low(1), Medium(2) or High(3) sensitivity to compound ([1]; Melanoma SK-MEL-5 (CL10007)): 2
- classification of cell line as Low(1), Medium(2) or High(3) sensitivity to compound ([1]; Melanoma SK-MEL-28 (CL10008)): 1
- classification of cell line as Low(1), Medium(2) or High(3) sensitivity to compound ([1]; Melanoma UACC-62 (CL10020)): 2
- classification of cell line as Low(1), Medium(2) or High(3) sensitivity to compound ([1]; Melanoma UACC-257 (CL10021)): 1
- classification of cell line as Low(1), Medium(2) or High(3) sensitivity to compound ([1]; NSCLC A549/ATCC (CL1004)): 2
- classification of cell line as Low(1), Medium(2) or High(3) sensitivity to compound ([1]; NSCLC EKVX (CL1008)): 1
- classification of cell line as Low(1), Medium(2) or High(3) sensitivity to compound ([1]; NSCLC HOP-62 (CL1026)): 2
- classification of cell line as Low(1), Medium(2) or High(3) sensitivity to compound ([1]; NSCLC HOP-92 (CL1029)): 2
- classification of cell line as Low(1), Medium(2) or High(3) sensitivity to compound ([1]; NSCLC NCI-H226 CL1013): 2
- sensitivity class NSCLC NCI-H23(I) CL1001 ([1]; cell line NSCLC NCI-H23(I), CL1001): 2
- sensitivity class NSCLC NCI-H332M CL1017 ([1]; cell line NSCLC NCI-H332M, CL1017): 1
- sensitivity class NSCLC NCI-H460 CL1021 ([1]; cell line NSCLC NCI-H460, CL1021): 3
- sensitivity class NSCLC NCI-H522 CL1003 ([1]; cell line NSCLC NCI-H522, CL1003): 2
- sensitivity class Ovarian IGROV1 CL6010 ([1]; cell line Ovarian IGROV1, CL6010): 2
- sensitivity class Ovarian OVCAR-3 CL6001 ([1]; cell line Ovarian OVCAR-3, CL6001): 1
- sensitivity class Ovarian OVCAR-4 CL6002 ([1]; cell line Ovarian OVCAR-4, CL6002): 1
- sensitivity class Ovarian OVCAR-5 CL6003 ([1]; cell line Ovarian OVCAR-5, CL6003): 1
- sensitivity class Ovarian OVCAR-8 CL6005 ([1]; cell line Ovarian OVCAR-8, CL6005): 2
- sensitivity class Prostate DU-145 CL11003 ([1]; cell line Prostate DU-145, CL11003): 2
- sensitivity class Prostate PC-3(I) CL11001 ([1]; cell line Prostate PC-3(I), CL11001): 2
- sensitivity class Renal 786-O CL9018 ([1]; cell line Renal 786-O, CL9018): 2
- sensitivity class Renal A498 CL9013 ([1]; cell line Renal A498, CL9013): 1
- sensitivity class Renal ACHN CL9023 ([1]; cell line Renal ACHN, CL9023): 2
- sensitivity class Renal CAKI-1 CL9015 ([1]; cell line Renal CAKI-1, CL9015): 2
- sensitivity class Renal RXF-393 CL9016 ([1]; cell line Renal RXF-393, CL9016): 1
- sensitivity class Renal SN12C CL9008 ([1]; cell line Renal SN12C, CL9008): 2
- sensitivity class Renal TK10 CL9024 ([1]; cell line Renal TK10, CL9024): 1
- sensitivity class Renal UO-31 CL9004 ([1]; cell line Renal UO-31, CL9004): 1
- -Log (GI50) ([2]; Breast BT-549 (CL5013)): 6.8 and 6.7
- -Log (GI50) ([2]; Breast MCF7(I) (CL5001)): 8.1 and 8.0
- -Log (GI50) ([2]; Breast MCF7/ADRr (CL5002)): 5.3
- -Log (GI50) ([2]; Breast MDA-MB-231 CL5005): 6.7 and 6.9
- -Log (GI50) ([2]; Breast MDA-MB-435 (CL5011)): 6.7 and 6.9
- -Log (GI50) ([2]; Breast MDA-N CL5012): 6.8 and 7.1
- -Log (GI50) ([2]; Breast T-47D (CL5014)): 7.2 and 7.3
- -Log (GI50) ([2]; CNS SNB-19 (CL12002)): 7.4 and 7.7
- -Log (GI50) ([2]; CNS U251(I) CL12009): 7.5 and 7.8
- -Log (GI50) ([2]; Colon COLO-250 CL4010): 6.8
- -Log (GI50) ([2]; Colon HCC-2998 (CL4002)): 6.8 and 6.7
- -Log (GI50) ([2]; Colon HCT-15 CL4015): 6.2 and 5.9
- -Log (GI50) ([2]; Colon HCT-116 (CL4003)): 7.6 and 7.8
- -Log (GI50) ([2]; Colon SW-620 (CL4009)): 7.6 and 7.7
- -Log (GI50) ([2]; Leukemia CCRF-CEM(I) (CL7003)): 7.9 and 8.0
- -Log (GI50) ([2]; Leukemia HL-60(I) (CL7008)): 7.9 and 8.0
- -Log (GI50) ([2]; Leukemia MOLT-4 (CL7006)): 8.2 and 8.0
- -Log (GI50) ([2]; Leukemia SR CL7019): 8.1 and 8.0
- -Log (GI50) ([2]; Melanoma M14 (CL10014)): 6.8 and 7.1
- -Log (GI50) ([2]; Melanoma MALME-3M CL10002): 7.3 and 7.6
- -Log (GI50) ([2]; Melanoma SK-MEL-5 (CL10007)): 7.2 and 7.4
- -Log (GI50) ([2]; Melanoma SK-MEL-28 (CL10008)): 6.5 and 6.7
- -Log (GI50) ([2]; Melanoma UACC-257 (CL10021)): 6.7 and 6.9
- -Log (GI50) ([2]; NCSLC NCI-H522 CL1003): 7.3 and 7.5
- -Log (GI50) ([2]; NSCLC A549/ATCC (CL1004)): 7.3 and 7.6
- -Log (GI50) ([2]; NSCLC EKVX (CL1008)): 6.2 and 5.9
- -Log (GI50) ([2]; NSCLC HOP-62 (CL1026)): 7.6 and 7.8
- -Log (GI50) ([2]; NSCLC HOP-92 (CL1029)): 7.2 and 7.5
- -Log (GI50) ([2]; NSCLC NCI-H226 CL1013): 7.5
- -Log (GI50) ([2]; NSCLC NCI-H332M CL1017): 6.5 and 6.8
- -Log (GI50) ([2]; NSCLC NCI-H460 CL1021): 8.2 and 8.0
- -Log (GI50) ([2]; Ovarian OVCAR-3 CL6001): 6.8 and 7.0
- -Log (GI50) ([2]; Ovarian OVCAR-4 CL6002): 6.5 and 6.8
- -Log (GI50) ([2]; Renal A498 CL9013): 6.8 and 6.9
- -Log (GI50) ([2]; Renal RXF-393 CL9016): 6.8 and 7.0
- -Log (GI50) ([2]; Renal UO-31 CL9004): 6.4
